Assay results reported in patent publication US20220331333A1, “RHOA PATHWAY INHIBITOR IN THE TREATMENT OF NEURODEVELOPMENTAL DISORDER OR NEUROPSYCHIATRIC DISORDER” (UNIVERSITE DE STRASBOURG, priority 2021, published 2022).

How the values were obtained:
RHOA [1] = assay: Western blot of RHOA in hippocampal lysates, Kctd13+/− line; assay type: in vivo, mouse; conditions: fasudil for 6 weeks, 18-week-old mice
Description: (§1) At 12 weeks of age, three independent cohorts of mice for each line, with wild-type (wt) and mutant littermates, were subjected to a battery of behavioral tests (see below) for 2 weeks. Then, 14 weeks old mice were randomly divided into 2 groups: one treated with fasudil administrated orally ad libitum in drinking water to reach a dose of 100 mg/kg/day and a second with no treatment. The dose was estimated to 152.7 mg in feeding bottle (250 ml) changed twice a week considering the previous study in which the drinking volume was evaluated to about 4.6 ml/day/mouse. […]
(§2) Fresh hippocampal tissues were isolated by rapid decapitation/dissection of naive mice and snap frozen. […] Protein concentration was determined by Pierce™ BCA Protein Assay Kit (23225, Thermo Fisher Scientific, Strasbourg). […] Total levels of RHOA protein and Myosin Light Chain phosphorylation by Myosin Light Chain Kinase via RHOA pathway were analyzed using Western Blot. […] Signals were quantified using ImageJ and analyzed using Microsoft Excel and GraphPad Prism. […] The ratio of protein level or phosphorylation level against control β-actin protein level (detected with a mouse monoclonal Anti-βActin-Peroxidase antibody (A3854 Sigma)) was normalized to untreated wt sample mean. […]

[2] = tested on: 16p11.2 Del/+ mouse model; assay: Novel object recognition (NOR) test after chronic fasudil treatment, 16p11.2 Del/+ line; assay type: in vivo; conditions: 16p11.2 Del/+ mice, 100 mg/kg/day orally in drinking water, tested at 19 weeks, 3 h retention delay
Description: (§3) In this study, the inventors developed a protocol for a pre-clinical treatment (FIG. 1) with the drug fasudil hydrochloride or HA1077 ([…], LC laboratories Boston, Mass., USA). […] Animal bedding was changed once a week. At 11 weeks, animals were transferred from the animal facility to the phenotyping area. The temperature was kept at 21±2° C., and the light cycle was controlled as 12 h light and 12 h dark. At 12 weeks of age, three independent cohorts of mice for each line, with wild-type (wt) and mutant littermates, were subjected to a battery of behavioral tests (see below) for 2 weeks. […] The dose was estimated to 152.7 mg in feeding bottle (250 ml) changed twice a week considering the previous study in which the drinking volume was evaluated to about 4.6 ml/day/mouse. […] During each session the exploration activity was analyzed by measuring the total distance travelled, evaluated the adaptation of the mice to the environment over time, by splitting the data in intervals of 10 minutes and assessed the vertical activity through the number of rears. […] The exploration time of both objects A was recorded. […] The exploration time of the two objects (familiar object and novel object) was recorded. […] Data from behavioral characterization of Kctd13^+/- and 16p11.2 Del/+ mouse models were analyzed through the Student t-test (see supplementary table 1 and table 2 as a summary). […]

[3] = tested on: phosphorylated form of MLC (P-MLC); assay: Western blot of phosphorylated MLC in hippocampal lysates, 16p11.2 Del/+ line; assay type: in vivo, mouse; conditions: fasudil for 6 weeks, 18-week-old mice
Description: as §1, §2

Kctd13^+/− mouse model [4] = assay: Open field test after chronic fasudil treatment, Kctd13+/− line; assay type: in vivo; conditions: Kctd13+/− and wt littermates, 100 mg/kg/day orally in drinking water, 4 weeks
Description: as §3

Kctd13^+/− mouse model [5] = assay: Novel object recognition (NOR) test after chronic fasudil treatment, Kctd13+/− line; assay type: in vivo; conditions: Kctd13+/− mice, 100 mg/kg/day orally in drinking water, tested at 19 weeks, 3 h retention delay
Description: as §3

[6] = tested on: 16p11.2 Del/+ mouse model; assay: Open field test after chronic fasudil treatment, 16p11.2 Del/+ line; assay type: in vivo; conditions: 16p11.2 Del/+ and wt littermates, 100 mg/kg/day orally in drinking water, 4 weeks
Description: as §3

RHOA [7] = assay: Western blot of RHOA in hippocampal lysates, 16p11.2 Del/+ line; assay type: in vivo, mouse; conditions: fasudil for 6 weeks, 18-week-old mice
Description: as §1, §2

[8] = tested on: phosphorylated form of MLC (P-MLC); assay: Western blot of phosphorylated MLC in hippocampal lysates, Kctd13+/− line; assay type: in vivo, mouse; conditions: Kctd13+/− mutant mice, fasudil for 6 weeks, 18-week-old mice
Description: as §1, §2

For `O=S(=O)(c1cccc2cnccc12)N1CCCNCC1` [fasudil, hexahydro-1-(5-isoquinolinesulfonyl)-1H-1,4-diazepine], the “RHOA protein levels in hippocampus” value (RHOA [1]) was “did not cause changes in RHOA protein levels”, the “novel object recognition (recognition index vs 50% chance level)” value [2] was “significantly improved the NOR defect” and the “MLC phosphorylation levels in hippocampus” value (from here on “MLC phosphorylation levels”) ([3]; 16p11.2 Del/+ mutant mice) was “restored a normal MLC phosphorylation”. The “MLC phosphorylation levels” value ([3]; wt littermates of the 16p11.2 Del/+ line) was “induced increased MLC phosphorylation in wt mice”, the “vertical activity (number of rears) in open field” value (Kctd13^+/− mouse model [4]) was “did not have effect on any genotype for the vertical activity” and the “locomotor exploration activity (total distance travelled) in open field” value (Kctd13^+/− mouse model [4]; treated vs non-treated) was “did not change the locomotor exploration activity”. For the same molecule, the “novel object recognition (recognition index vs 50% chance level)” value (Kctd13^+/− mouse model [5]) was “significantly improved the NOR defect”, the “vertical activity (number of rears) in open field” value [6] was “did not have effect on any genotype for the vertical activity” and the “locomotor exploration activity (total distance travelled) in open field” value ([6]; treated vs non-treated) was “did not change the locomotor exploration activity”. The “RHOA protein levels in hippocampus” value (RHOA [7]) was “did not cause changes in RHOA protein levels” and the “MLC phosphorylation levels” value [8] was “reduced MLC phosphorylation levels”.
